Patent publication EP4685142A1, “TRIAZINE COMPOUND AND USE THEREOF” (Chengdu Zenitar Biomedical Technology Co., Ltd., priority 2023, dated 2024)
Read-outs that look alike come from different tables or passages of the source.

Legend:
[1] = Pharmacokinetic evaluation in Balb/c mice; format: in vivo; details: mouse, in vivo, 5 mg/kg
Text: 4. Pharmacokinetic evaluation of compounds in Balb/c mice
Experimental purpose: to understand pharmacokinetic properties of the compounds.
Experimental basis: Technical Guidelines for Nonclinical Pharmacokinetic Studies of Chemical Drugs, 2014.
Experimental protocol: the pharmacokinetic properties of the compounds were investigated via intravenous administration and intragastric administration in Balb/c mice.
The blood drug concentration was quantitatively analyzed by LC-MS/MS, and pharmacokinetic parameters were calculated, such as peak concentration (Cmax), area under the concentration-time curve (AUC(0-t)), half-life (T1/2), clearance (CL), volume of distribution at steady state (Vdss), and bioavailability (F).
The results of pharmacokinetic evaluation are shown in Table 5 below: Table 5 Pharmacokinetic test results of compounds in Balb/c mice

[2] = target: T1, hERG potassium ion channel (Homo sapiens, UniProt Q12809)
Description: (§1) Inhibition experiment of compounds on hERG potassium ion channel
(§2) Cell culture and treatment: CHO cells stably expressing hERG were cultured in cell culture flasks and incubated in a 5% CO2 incubator at 37°C. When a cell density reached 60%-80%, the cell culture medium was aspirated, washed once with PBS, and then digested with Detachin. After digestion, the grown cells were neutralized in the cell culture medium, and then centrifuged, the supernatant was aspirated, the cell culture medium was added again to resuspend the grown cells, and the cell density was adjusted to 2-5×10^6 cells/mL for later use.
(§3) Compound preparation: the compound stock solution was diluted in 100% DMSO, that is, 10 µL compound stock solution was serially diluted in 20 µL DMSO by 3 folds to obtain six concentrations. Six concentrations of the compound (4 µL for each concentration) were diluted in 396 µL extracellular fluid by 100 folds to obtain six intermediate concentrations. Six intermediate concentrations of the compound (80 µL for each concentration) were diluted in 320 µL extracellular fluid by 5 folds to obtain final concentrations to be tested. […] DMSO in a final test concentration was not more than 0.2%, and DMSO at this concentration had no effect on the hERG potassium channel. The entire dilution process for compound preparation was performed using Bravo instrument.
(§4) Electrophysiological recording process: the processes of single-celled high-impedance sealing and whole-cell mode formation were all automatically completed by Qpatch instrument, under the whole-cell recording mode, the cells were clamped at -80 mV, before 5-second + 40 mV depolarization stimulus, the cells were given 50-millisecond - 50 mV pre-voltage, followed by repolarization to -50 mV for 5 seconds, and then returning to -80 mV. The voltage stimulus was given every 15 seconds, after 2 minutes of recording, extracellular fluid was recorded for 5 min, and then a drug was administrated, started from a lowest test concentration, each test concentration of the compound was given for 2.5 minutes, after all concentrations were given consecutively, a positive control compound Cisapride (3 µM) was given. At least 3 cells were tested for each concentration (n≥3).
(§5) Data processing: data analysis and processing were performed using GraphPad Prism 5.0 and Excel software. IC50 values of the compounds were calculated by fitting with the following equation using GraphPad Prism 5 software: Y = Bottom + (Top−Bottom)/(1+10^(∧)((LogIC50−X)*HillSlope)); [formula] where X is the Log value of the test sample concentration, Y is an inhibition percentage at a corresponding concentration, and Bottom and Top are the minimum and maximum inhibition percentages, respectively.

NLRP3 inflammasome = target: T2, NLRP3 inflammasome (Homo sapiens, UniProt Q96P20); assay: Inhibitory activity of NLRP3 inflammasome in human monocytes (THP-1 cells, LPS + Nigericin, IL-1β ELISA); format: cell-based
T2 construct: host or cells: THP-1 cells
Description: 1. Determination of inhibitory activity of NLRP3 inflammasome in human monocytes
Experimental method: THP-1 cells were cultured in RPMI culture medium containing PMA (10 µM), and then inoculated in 48-well plates at a density of 2×10^5 cells/mL, the plates were incubated overnight in a 5% CO2 incubator at 37°C. The next day, the above culture medium was replaced with Opti-MEM culture medium containing 1 µg/mL LPS. After 3 hours, the grown cells were simulated for 40 min with a drug, and then simulated for 40 min with Nigericin (10 µM), and a cell supernatant was harvested for ELISA analysis.
Table 2 Inhibitory activity of NLRP3 inflammasome

[3] = target: T1, hERG potassium ion channel; assay: Inhibition of hERG potassium ion channel (CHO cells stably expressing hERG, Qpatch)
Description: as §1, §2, §3, §4, §5

[4] = In vivo brain-to-plasma ratio in mice; details: for Brain / Plasma: male mice, oral 10 mg/kg
Description: Evaluation of in vivo brain-to-plasma ratio of compound
Experimental purpose: to obtain the brain-to-plasma ratio of the compound
Experimental protocol: the brain-to-plasma ratio of the compound was investigated by monitoring the content of the compound in mouse brain and plasma.
Experimental procedure: the compound was weighed, followed by adding a small amount of DMSO and adding a sodium chloride solution for injection, to prepare a 10 mg · mL^-1 compound solution for administration. Male mice were orally administered at 10 mg · kg^-1, and whole plasma and whole brain tissue were sampled at 1 h and 6 h after administration (n=3). […] A centrifuge tube was weighed as M1, the centrifuge tube containing the whole brain tissue was weighed as M2, the centrifuge tube containing water for homogenization was weighed as M3, and the centrifuge tube after the removal of 30 µL homogenate was weighed as M4.
Standard curve range: 10-10,000 ng·mL^-1. Content of drug in brain = measured value × 0.03 × (M3−M1)/[(M2−M1)×(M3−M4)].

LPS-induced mice = assay: LPS-induced mouse model, survival; format: in vivo, Balb/c mice; details: for 72h Survival rate: 25 mg/kg oral, 1 h before 10 mg/kg LPS i.p.; for survival status of mice (mice alive) 12h / survival status of mice (mice alive) 24h / survival status of mice (mice alive) 36h / survival status of mice (mice alive) 48h / survival status of mice (mice alive) 72h: 25 mg/kg
[5] = In vivo distribution of cerebrospinal fluid and plasma; details: intravenous 5 mg/kg, n=1
Description: Evaluation of in vivo distribution of cerebrospinal fluid and plasma after compound administration
Experimental procedure: the compound was weighed, followed by adding a small amount of DMSO and then adding a sodium chloride solution for injection, to prepare a 5 mg·mL^-1 compound solution for administration. […] Standard curve range: 1-1000 ng·mL^-1.

[6] = PO, Balb/c mice, read-out: AUC(0-t)
[7] = PO, Balb/c mice, read-out: Cmax
[8] = PO, Balb/c mice, read-out: T1/2 (converted)
[9] = THP-1 cells, PMA, LPS 1 µg/mL 3 h, drug 40 min, Nigericin 10 µM 40 min, IL-1β ELISA, read-out: IC50
[10] = male, mouse, brain/plasma, po, 10 mg/kg
[11] = male, mouse, plasma, po, 10 mg/kg

T1 sequence (Q12809 whole entry): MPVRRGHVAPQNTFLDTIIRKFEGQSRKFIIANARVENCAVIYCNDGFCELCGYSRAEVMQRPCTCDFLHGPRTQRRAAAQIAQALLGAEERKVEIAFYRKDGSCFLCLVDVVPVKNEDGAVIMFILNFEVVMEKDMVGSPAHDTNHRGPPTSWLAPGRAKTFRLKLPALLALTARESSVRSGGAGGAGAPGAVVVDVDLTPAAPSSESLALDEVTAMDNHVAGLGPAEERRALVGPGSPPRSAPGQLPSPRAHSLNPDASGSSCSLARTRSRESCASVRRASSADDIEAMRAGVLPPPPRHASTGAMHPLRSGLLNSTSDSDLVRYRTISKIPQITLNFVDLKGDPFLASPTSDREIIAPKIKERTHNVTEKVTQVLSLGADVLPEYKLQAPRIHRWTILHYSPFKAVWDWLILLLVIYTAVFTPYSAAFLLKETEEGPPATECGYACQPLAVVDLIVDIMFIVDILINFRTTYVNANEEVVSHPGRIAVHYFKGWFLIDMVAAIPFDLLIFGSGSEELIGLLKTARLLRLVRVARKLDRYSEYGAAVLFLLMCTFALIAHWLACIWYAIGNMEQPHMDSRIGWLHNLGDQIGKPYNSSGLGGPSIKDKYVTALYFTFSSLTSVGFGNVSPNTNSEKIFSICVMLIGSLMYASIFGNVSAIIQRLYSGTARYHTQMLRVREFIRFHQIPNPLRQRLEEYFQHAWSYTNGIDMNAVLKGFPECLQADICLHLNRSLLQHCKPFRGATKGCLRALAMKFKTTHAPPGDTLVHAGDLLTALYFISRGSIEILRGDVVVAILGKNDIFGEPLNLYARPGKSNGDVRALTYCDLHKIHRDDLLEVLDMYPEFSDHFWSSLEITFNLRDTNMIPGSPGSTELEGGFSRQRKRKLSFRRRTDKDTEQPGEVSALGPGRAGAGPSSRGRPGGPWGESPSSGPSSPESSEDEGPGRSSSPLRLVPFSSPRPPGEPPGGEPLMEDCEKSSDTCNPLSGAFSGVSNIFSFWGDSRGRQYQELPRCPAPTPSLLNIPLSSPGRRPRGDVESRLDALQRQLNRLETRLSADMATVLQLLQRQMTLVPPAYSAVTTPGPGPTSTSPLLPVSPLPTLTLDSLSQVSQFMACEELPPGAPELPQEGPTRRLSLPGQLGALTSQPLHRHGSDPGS
T2 sequence (Q96P20 whole entry): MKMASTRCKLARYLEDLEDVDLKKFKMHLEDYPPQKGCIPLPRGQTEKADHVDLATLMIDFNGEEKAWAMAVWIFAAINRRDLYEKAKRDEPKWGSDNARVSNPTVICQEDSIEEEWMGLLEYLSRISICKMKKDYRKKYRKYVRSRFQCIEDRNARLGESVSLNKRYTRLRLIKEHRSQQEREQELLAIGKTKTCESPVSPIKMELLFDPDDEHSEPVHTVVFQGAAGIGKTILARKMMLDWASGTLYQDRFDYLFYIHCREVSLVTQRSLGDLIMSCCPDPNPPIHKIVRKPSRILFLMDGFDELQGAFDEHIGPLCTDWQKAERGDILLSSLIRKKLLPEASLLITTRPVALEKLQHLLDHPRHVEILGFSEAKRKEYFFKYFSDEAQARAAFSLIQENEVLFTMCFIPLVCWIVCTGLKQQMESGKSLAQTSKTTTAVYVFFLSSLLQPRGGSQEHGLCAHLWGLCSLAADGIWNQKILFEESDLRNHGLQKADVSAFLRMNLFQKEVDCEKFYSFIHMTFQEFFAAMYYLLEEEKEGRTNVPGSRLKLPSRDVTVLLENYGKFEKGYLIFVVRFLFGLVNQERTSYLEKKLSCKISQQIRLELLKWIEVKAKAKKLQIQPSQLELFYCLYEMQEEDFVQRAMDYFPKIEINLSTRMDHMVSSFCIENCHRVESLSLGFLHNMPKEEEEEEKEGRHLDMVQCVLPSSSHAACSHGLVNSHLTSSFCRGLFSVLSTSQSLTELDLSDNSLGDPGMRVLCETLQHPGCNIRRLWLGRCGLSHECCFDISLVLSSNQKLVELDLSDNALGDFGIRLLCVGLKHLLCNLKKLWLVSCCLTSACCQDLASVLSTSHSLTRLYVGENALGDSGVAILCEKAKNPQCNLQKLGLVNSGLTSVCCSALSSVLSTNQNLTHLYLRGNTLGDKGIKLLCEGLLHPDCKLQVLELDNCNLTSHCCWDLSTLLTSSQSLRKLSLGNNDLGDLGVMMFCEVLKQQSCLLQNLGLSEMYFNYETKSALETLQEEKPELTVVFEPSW

Structure (SMILES)	AUC(0-t) [1, 6]	Cmax [1, 7]	half-life [1, 8]	inhibitory effects on the hERG potassium ion channel (conclusion in words) [2]	IC50 (NLRP3 inflammasome; [9])	20 uM Inhibition ratio [3]	inhibitory effects on the hERG potassium ion channel (conclusion in words) ([2]; human)	IC50 (NLRP3 inflammasome)	72h Survival rate (LPS-induced mice)	survival status of mice (mice alive) 12h (LPS-induced mice; First cage (5 mice))	survival status of mice (mice alive) 24h (LPS-induced mice; First cage (5 mice))	survival status of mice (mice alive) 36h (LPS-induced mice; First cage (5 mice))	survival status of mice (mice alive) 48h (LPS-induced mice; First cage (5 mice))	survival status of mice (mice alive) 72h (LPS-induced mice; First cage (5 mice))	survival status of mice (mice alive) 12h (LPS-induced mice; Second cage (5 mice))	survival status of mice (mice alive) 24h (LPS-induced mice; Second cage (5 mice))	survival status of mice (mice alive) 36h (LPS-induced mice; Second cage (5 mice))	survival status of mice (mice alive) 48h (LPS-induced mice; Second cage (5 mice))	survival status of mice (mice alive) 72h (LPS-induced mice; Second cage (5 mice))	also measured
CC(C)n1c(-c2ccc3sccc3c2O)nnc(N[C@@H]2CCCN(C)C2)c1=O [Compound 54, (R)-3-(4-hydroxybenzo[b]thiophen-5-yl)-4-isopropyl-6-((1-methylpiperidin-3-yl)amino)-1,2,4-triazin-5(4H)-ketone]	7470 ng·h/mL	1550 ng/mL	4.25 h	Conclusion: compounds 3, 4, 5, 9, 16, 17, 24, 30, 40, 41, 42, 43, 54 and others have weak inhibitory effects on the hERG potassium ion channel, having weaker inhibitory effect than the reference compound Ref-1.	–	–	–	–	–	–	–	–	–	–	–	–	–	–	–	20 uM Inhibition ratio [2]: 7.77%
Cn1c(-c2ccc3sccc3c2O)nnc(N[C@@H]2CCCN(CC3CC3)C2)c1=O [Compound 8, (R)-6-((1-(cyclopropylmethyl)piperidin-3-yl)amino)-3-(4-hydroxybenzo[b]thiophen-5-yl)-4-methyl-1,2,4-triazin-5(4H)-ketone]	–	–	–	–	1.92 nM	69.48%	–	–	–	–	–	–	–	–	–	–	–	–	–	–
Cn1c(-c2ccc3sccc3c2O)nnc(N[C@@H]2CCCC[C@H]2O)c1=O [Compound 30, 3-(4-hydroxybenzo[b]thiophen-5-yl)-6-(((1R,2R)-2-hydroxycyclohexyl)amino)-4-methyl-1,2,4-triazin-5(4H)-ketone.]	–	–	–	–	1.97 nM	1.70%	Conclusion: compounds 3, 4, 5, 9, 16, 17, 24, 30, 40, 41, 42, 43, 54 and others have weak inhibitory effects on the hERG potassium ion channel, having weaker inhibitory effect than the reference compound Ref-1.	–	–	–	–	–	–	–	–	–	–	–	–	AUC(0-t) ([1]; male, Balb/c, po): 4380 ng·h/mL; Cmax ([1]; male, Balb/c, po): 9810 ng/mL; half-life ([1]; male, Balb/c, po): 0.19 h
CCN1CCC[C@@H](Nc2nnc(-c3ccc4sccc4c3O)n(CC)c2=O)C1 [Compound 12, (R)-4-ethyl-6-((1-ethylpiperidin-3-yl)amino)-3-(4-hydroxybenzo[b]thiophen-5-yl)-1,2,4-triazi n-5(4H)-ketone]	–	–	–	–	7.2 nM	52.99%	–	–	–	–	–	–	–	–	–	–	–	–	–	AUC(0-t) ([1]; male, Balb/c, po): 12800 ng·h/mL; Cmax ([1]; male, Balb/c, po): 2740 ng/mL; half-life ([1]; male, Balb/c, po): 3.08 h; Brain ([4]; 1 h): 498 ng/g; Brain ([4]; 6 h): 215 ng/g; Kp at 1 h [4, 10]: 0.13; Kp at 6 h [4, 10]: 0.13; concentration at 1 h [4, 11]: 3840 ng/mL; concentration at 6 h [4, 11]: 1700 ng/mL
Cn1c(-c2ccc3sccc3c2O)nnc(N[C@@H]2CCCN(CCO)C2)c1=O [Compound 9, (R)-3-(4-hydroxybenzo[b]thiophen-5-yl)-6-((1-(2-hydroxyethyl)piperidin-3-yl)amino)-4-methyl-1,2,4-triazin-5(4H)-ketone]	4400 ng·h/mL	2280 ng/mL	0.85 h	Conclusion: compounds 3, 4, 5, 9, 16, 17, 24, 30, 40, 41, 42, 43, 54 and others have weak inhibitory effects on the hERG potassium ion channel, having weaker inhibitory effect than the reference compound Ref-1.	–	8.83%	–	3.95 nM	70%	5	5	5	5	3	5	5	5	5	4	Plasma ([4]; 1 h): 1830 ng/mL; Plasma ([4]; 6 h): 46 ng/mL; Kp at 1 h ([4]; mouse, brain, po, 10 mg/kg): 0.04; Kp at 6 h ([4]; mouse, brain, po, 10 mg/kg): 0.46
Cn1c(-c2ccc3sccc3c2O)nnc(N[C@@H]2CCCN(C3CC(F)(F)C3)C2)c1=O [Compound 5, (R)-6-((1-(3,3-difluorocyclobutyl)piperidin-3-yl)amino)-3-(4-hydroxybenzo[b]thiophen-5-yl)-4-methyl-1,2,4-triazin-5(4H)-ketone]	–	–	–	–	3.56 nM	19.97%	Conclusion: compounds 3, 4, 5, 9, 16, 17, 24, 30, 40, 41, 42, 43, 54 and others have weak inhibitory effects on the hERG potassium ion channel, having weaker inhibitory effect than the reference compound Ref-1.	–	–	–	–	–	–	–	–	–	–	–	–	–
Cc1nc(N[C@@H]2CCCC[C@H]2O)nnc1-c1ccc(C(F)(F)F)cc1O [Ref-2, reference compound]	270 ng·h/mL	246 ng/mL	2.6 h	–	–	–	–	14.7 nM	50%	5	5	4	2	2	5	4	4	3	3	Brain ([4]; 1 h): 168 ng/g; Plasma ([4]; 1 h): 264 ng/mL; Plasma ([4]; 6 h): 8.27 ng/mL; Kp at 1 h ([4]; mouse, brain, po, 10 mg/kg): 0.63; Kp at 6 h ([4]; mouse, brain, po, 10 mg/kg): 0.17
Cn1c(-c2ccc3sccc3c2O)nnc(N[C@@H]2CCCN(C3CC3)C2)c1=O [Compound 16, (R)-6-((1-cyclopropylpiperidin-3-yl)amino)-3-(4-hydroxybenzo[b]thiophen-5-yl)-4-methyl-1,2,4-triazin-5(4H)-ketone]	–	–	–	–	1.62 nM	35.63%	Conclusion: compounds 3, 4, 5, 9, 16, 17, 24, 30, 40, 41, 42, 43, 54 and others have weak inhibitory effects on the hERG potassium ion channel, having weaker inhibitory effect than the reference compound Ref-1.	–	–	–	–	–	–	–	–	–	–	–	–	–
CCN1C[C@H](F)C[C@@H](Nc2nnc(-c3ccc4sccc4c3O)n(C)c2=O)C1 [Compound 41, 6-(((3R,5R)-1-ethyl-5-fluoropiperidin-3-yl)amino)-3-(4-hydroxybenzo[b]thiophen-5-yl)-4-me thyl-1,2,4-triazin-5(4H)-ketone]	–	–	–	Conclusion: compounds 3, 4, 5, 9, 16, 17, 24, 30, 40, 41, 42, 43, 54 and others have weak inhibitory effects on the hERG potassium ion channel, having weaker inhibitory effect than the reference compound Ref-1.	–	13.31%	–	2.02 nM	100%	5	5	5	5	5	5	5	5	5	5	Cerebrospinal fluid ([5]; 0.25h): 67 ng/g; Plasma ([5]; 0.25h): 668 ng/mL; Cerebrospinal fluid ([5]; 2h): 1 ng/g; Plasma ([5]; 2h): 38 ng/mL
C#Cc1ccc(-c2nnc(N[C@@H]3CCCN(C)C3)c(=O)n2C)c(O)c1 [Compound 24, (R)-3-(4-ethynyl-2-hydroxyphenyl)-4-methyl-6-((1-methylpiperidin-3-yl)amino)-1,2,4-triazin-5(4H)-ketone]	–	–	–	–	12 nM	6.83%	Conclusion: compounds 3, 4, 5, 9, 16, 17, 24, 30, 40, 41, 42, 43, 54 and others have weak inhibitory effects on the hERG potassium ion channel, having weaker inhibitory effect than the reference compound Ref-1.	–	–	–	–	–	–	–	–	–	–	–	–	–
